Active and inactive are the calls of the source.
Assays:
cells [1] = format: functional, cell-based
cells [2] = format: functional, cell-based; remark: listed apart in the source
[3] = molecular target: T1, DNA repair and recombination protein RAD54-like (Homo sapiens, UniProt Q92698); experiment: RAD54 Holliday junction migration blockers – biochemical, fluorescence, cherry-picked samples, dose series, confirmation (AID 651657); format: functional
T1 sequence (Q92698 whole entry): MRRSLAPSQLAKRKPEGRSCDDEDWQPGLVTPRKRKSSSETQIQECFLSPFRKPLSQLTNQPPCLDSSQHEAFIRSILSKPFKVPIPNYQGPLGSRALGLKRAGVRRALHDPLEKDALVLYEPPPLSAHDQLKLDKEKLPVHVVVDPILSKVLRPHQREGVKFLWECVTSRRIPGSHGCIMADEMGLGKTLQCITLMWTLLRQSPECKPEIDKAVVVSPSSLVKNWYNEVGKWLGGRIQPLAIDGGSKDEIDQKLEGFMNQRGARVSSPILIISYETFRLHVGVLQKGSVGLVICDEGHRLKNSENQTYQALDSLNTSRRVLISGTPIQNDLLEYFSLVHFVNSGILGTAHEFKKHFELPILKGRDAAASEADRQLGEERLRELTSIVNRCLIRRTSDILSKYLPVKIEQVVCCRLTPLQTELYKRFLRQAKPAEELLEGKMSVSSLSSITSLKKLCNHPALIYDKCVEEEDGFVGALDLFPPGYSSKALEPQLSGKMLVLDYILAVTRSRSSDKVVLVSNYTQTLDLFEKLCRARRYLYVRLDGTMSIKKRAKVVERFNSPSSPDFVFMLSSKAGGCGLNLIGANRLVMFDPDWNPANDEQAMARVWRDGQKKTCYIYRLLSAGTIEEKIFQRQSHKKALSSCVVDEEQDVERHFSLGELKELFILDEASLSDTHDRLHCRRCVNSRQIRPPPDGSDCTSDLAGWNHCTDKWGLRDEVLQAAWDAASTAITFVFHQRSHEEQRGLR

[4] = A cytotoxicity screen of small molecule inhibitors of the PhoP region in Salmonella typhi identified in the primary screen. [Related pubchem assays: 1850, 1864, 1985 ]; format: functional
HEK293 = experiment: EBV LMP1 TES2 canonical NF-kB signalling blockers – cell-based, HEK293, luciferase, cherry-pick, dose response (AID 588343); format: functional; settings: Homo sapiens
[5] = alpha-synuclein stem-loop luciferase translation blockers – H4 neuroglioma cells, luminescence, confirmation (AID 1988); format: functional, cell-based
[6] = Luminescence Cell-Based Dose Response HTS to Identify Inhibitors of 5'UTR Stem-Loop Driven Prion Protein mRNA Translation in H4 Neuroglioblastoma Cells. [Related pubchem assays: 1827 (Project Summary), 1813 (Primary HTS)]; format: functional
[7] = THP-1 cell cytotoxicity, dose response, cytotoxicity control for non-replicating M. tuberculosis project (AID 489025); format: functional
INS1 = experiment: INS-1E survival protection against cytokine death – cell-based, luminescence, retest, dose response (AID 449756); format: functional; settings: Rattus norvegicus;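 further: cell death triggered by IL-1 beta plus TNF-alpha plus IFN-gamma mixture; protective hits raise ATP signal compared with cytokine alone wells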
[8] = viability of uninfected HEp-2 cells – cell-based, HTS, cytotoxicity control for RSV inhibitor project, dose response (AID 2410); format: functional; settings: human respiratory syncytial virus
cells [9] = experiment: cells
Large T antigen = Large T antigen (Simian virus 40, UniProt P03070); format: functional, Betapolyomavirus macacae;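 further: Confirmatory-stage PubChem screen for compounds that inhibit SV40 T antigen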
[10] = molecular target: Heat shock protein HSP 90-alpha (Homo sapiens, UniProt P07900); format: functional, organism-based
cells [11] = format: functional
[12] = viability of HCT116 lacking mutant beta-catenin – cell-based, human colon tumor, dose response (AID 1045); format: functional;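 further: HCT116 colon tumor cells with beta catenin knocked out; cells exposed to compound for 60 hours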
[13] = viability of PTEN-deleted HCT116 cells – cell-based, HCT116 PTEN knockout, dose response (AID 1047); format: functional;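 further: HCT116 colon tumor cells with PTEN knocked out; cells exposed to compound for 60 hours before readout; potency for loss of cell viability measured by luminescence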
[14] = luciferase reporter signal suppression in cells – H4 neuroglioma cells, luminescence, dose response (AID 1990); format: functional, cell-based

Chain of Large T antigen (P03070 whole entry): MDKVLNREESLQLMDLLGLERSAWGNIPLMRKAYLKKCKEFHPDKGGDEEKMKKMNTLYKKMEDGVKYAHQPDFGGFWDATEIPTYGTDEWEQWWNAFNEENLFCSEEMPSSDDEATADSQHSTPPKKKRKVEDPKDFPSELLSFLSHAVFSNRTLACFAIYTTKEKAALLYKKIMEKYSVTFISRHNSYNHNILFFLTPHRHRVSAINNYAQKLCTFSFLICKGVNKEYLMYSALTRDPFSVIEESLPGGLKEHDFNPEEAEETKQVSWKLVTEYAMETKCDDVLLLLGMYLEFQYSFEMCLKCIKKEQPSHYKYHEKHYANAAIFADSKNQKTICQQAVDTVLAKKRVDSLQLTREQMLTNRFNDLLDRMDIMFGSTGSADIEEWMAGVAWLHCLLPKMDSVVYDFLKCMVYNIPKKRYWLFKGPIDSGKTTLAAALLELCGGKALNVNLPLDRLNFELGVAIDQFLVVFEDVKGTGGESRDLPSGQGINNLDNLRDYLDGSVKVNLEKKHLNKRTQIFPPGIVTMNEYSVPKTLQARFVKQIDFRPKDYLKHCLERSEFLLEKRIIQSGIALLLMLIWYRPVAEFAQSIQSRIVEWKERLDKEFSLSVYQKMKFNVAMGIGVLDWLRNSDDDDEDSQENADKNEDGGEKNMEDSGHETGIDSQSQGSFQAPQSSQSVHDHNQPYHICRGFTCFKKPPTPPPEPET

O=C(CSc1nnc(-c2ccccc2Cl)o1)N1CCOCC1
EC50 (cells [1]): > 350 µM (not active)
EC50 (cells [2]): > 350 µM (not active)

CCOC(=O)c1cc(-c2ccncc2)nc2c1c(C)nn2-c1ccccn1
AC50 [3]: 30.4 µM (active)
EC50 [4]: > 50 µM (active)

Cc1nc(C)c(-c2ccc(SCc3ccccc3F)nn2)s1
EC50 [4]: > 50 µM (active)

CCc1nn2cc(-c3ccccc3)nc2s1
AC50 (HEK293): 2.06 µM (active)

CCn1nnc2cc(C(=O)NCCc3ccccc3F)ccc21
EC50 [5]: 5.03 µM (active)
EC50 [6]: 4.08 µM (active)
AC50 (HEK293): 3.14 µM (active)

NC(=O)c1c(NC(=O)CSc2nc(N)cc(O)n2)sc2c1CCCC2
EC50 [4]: > 50 µM (active)

COc1cccc(C(=O)SC2=NCCS2)c1
EC50 (cells [1]): > 350 µM (not active)
EC50 (cells [2]): 55.8 µM (active)

CC(=O)Oc1ccc(N(C(C)=O)S(=O)(=O)c2cccs2)c2ccccc12
CC50 [7]: 26.1 µM (active)
AC50 (INS1): 8.83 µM (active)

COC(=O)C1=C(C)N(Cc2ccco2)C(=O)N[C@H]1c1cccc(C(F)(F)F)c1
CC50 [8]: 25.6 µM (active)
IC50 (cells [9]): 1.47 µM (active)

COc1ccc(/C=C2/C(=O)N(Cc3ccco3)C(=O)N(C(C)C)C2=O)cc1
IC50 (Large T antigen): 80.6 µM (active)

CN1C(=O)C(=C(Nc2ccc(F)cc2)c2ccccc2Cl)C(=O)N(C)C1=O
AC50 [10]: 3.17 µM (active)

O=C(N/N=C/C(Br)=C/c1ccccc1)c1ccncc1
CC50 [7]: > 40 µM (active)
IC50 (cells [11]): 0.61 µM (active)

O=C(N/N=C/c1cccnc1)c1ccc([N+](=O)[O-])cc1Cl
EC50 [4]: > 50 µM (active)

O=C(N/N=C/c1ccc(O)c(O)c1)c1cccc(S(=O)(=O)N2CCCC2)c1
IC50 (Large T antigen): 4.72 µM (active)

CCCCN(CC)S(=O)(=O)c1ccc(C(=O)/N=c2\sc3cc(NC(C)=O)ccc3n2C)cc1
EC50 [12]: 10.2 µM (active)
EC50 [13]: 17.1 µM (active)

Cc1cccc(NS(=O)(=O)c2ccc(C)c(C(=O)OCC(=O)Nc3cc(C)on3)c2)c1
CC50 [8]: 23.9 µM (active)
EC50 [5]: 28.1 µM (active)
EC50 [14]: 41.1 µM (active)
IC50 (cells [9]): 30.8 µM (active)
EC50 [6]: > 120 µM (not active)

— ChEMBL document CHEMBL1201862, “PubChem BioAssay data set” (2004)
